Laboratory results published in PubChem BioAssay AID248 (DTP/NCI, 2004).
“And” between values parts separate entries of the source, which are not always exact repeats. Equal entries are not always repeated. Inconclusive results and toxic doses are left out. Rule as the data show it: active = T/C of 150% or more; inactive = T/C below 125%.

Tested on: L1210 leukemia ip in BDF1 mice, survival T/C
Test: NCI In Vivo Anticancer Drug Screen. Data for tumor model L1210 Leukemia (intraperitoneal) in B6D2F1 (BDF1) mice
Conditions: endpoint: mean survival time, higher = longer survival
Method in brief: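 Value reflects the ratio of survival in compound-treated mice to survival in vehicle-treated controls, with both groups carrying the same transplanted tumor.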

[1] = dose: 100.0 mg/kg/injection, schedule: Q01DX009 (ip), vehicle: saline with Tween-80
[2] = dose: 200.0 mg/kg/injection, schedule: Q01DX009 (ip), vehicle: saline with Tween-80
[3] = dose: 100.0 mg/kg/injection, schedule: Q01DX001 (ip), vehicle: saline
[4] = dose: 200.0 mg/kg/injection, schedule: Q01DX001 (ip), vehicle: saline
[5] = dose: 400.0 mg/kg/injection, schedule: Q01DX001 (ip), vehicle: saline
[6] = dose: 100.0 mg/kg/injection, schedule: Q04DX002 (ip), vehicle: Klucel (hydroxypropylcellulose) (HPC)
[7] = dose: 200.0 mg/kg/injection, schedule: Q04DX002 (ip), vehicle: Klucel (hydroxypropylcellulose) (HPC)
[8] = dose: 400.0 mg/kg/injection, schedule: Q04DX002 (ip), vehicle: Klucel (hydroxypropylcellulose) (HPC)

Measured: T/C

CC(=O)Nc1ccc(C(N)=O)cn1
inactive: dose: 8.0 mg/kg/injection, schedule: Q01DX009 (ip), vehicle: carboxymethylcellulose (CMC) 98 % of control | dose: 16.0 mg/kg/injection, schedule: Q01DX009 (ip), vehicle: carboxymethylcellulose (CMC) 98 % of control | dose: 32.0 mg/kg/injection, schedule: Q01DX009 (ip), vehicle: carboxymethylcellulose (CMC) 98 % of control | dose: 64.0 mg/kg/injection, schedule: Q01DX001 (ip), vehicle: carboxymethylcellulose (CMC) 94 % of control | dose: 64.0 mg/kg/injection, schedule: Q01DX009 (ip), vehicle: carboxymethylcellulose (CMC) 118 % of control | dose: 128.0 mg/kg/injection, schedule: Q01DX001 (ip), vehicle: carboxymethylcellulose (CMC) 92 % of control | dose: 256.0 mg/kg/injection, schedule: Q01DX001 (ip), vehicle: carboxymethylcellulose (CMC) 97 % of control | dose: 512.0 mg/kg/injection, schedule: Q01DX001 (ip), vehicle: carboxymethylcellulose (CMC) 92 % of control

c1c[nH]c(N=Nc2ccc(-c3ccc(N=Nc4ncc[nH]4)cc3)cc2)n1
inactive: dose: 50.0 mg/kg/injection, schedule: Q01DX009 (ip), vehicle: saline with Tween-80 97 % of control | [1] 90 % of control | [2] 90 % of control

Nc1nc2ccccc2nc1N
inactive: dose: 50.0 mg/kg/injection, schedule: Q01DX009 (ip), vehicle: saline 96 % of control | dose: 50.0 mg/kg/injection, schedule: Q04DX003 (ip), vehicle: saline 105 % of control | dose: 100.0 mg/kg/injection, schedule: Q01DX009 (ip), vehicle: saline 104 % of control | dose: 100.0 mg/kg/injection, schedule: Q04DX003 (ip), vehicle: saline 101 % of control | dose: 200.0 mg/kg/injection, schedule: Q04DX003 (ip), vehicle: saline 108 % of control

O=C(O)/C(=C\CCCCCC/C=C(\CCO)C(=O)O)CCO
inactive: dose: 100.0 mg/kg/injection, schedule: Q01DX009 (ip), vehicle: Klucel (hydroxypropylcellulose) (HPC) 98 % of control | dose: 100.0 mg/kg/injection, schedule: Q04DX003 (ip), vehicle: Klucel (hydroxypropylcellulose) (HPC) 96 % of control | dose: 200.0 mg/kg/injection, schedule: Q01DX009 (ip), vehicle: Klucel (hydroxypropylcellulose) (HPC) 91 % of control | dose: 200.0 mg/kg/injection, schedule: Q04DX003 (ip), vehicle: Klucel (hydroxypropylcellulose) (HPC) 93 % of control | dose: 400.0 mg/kg/injection, schedule: Q01DX009 (ip), vehicle: Klucel (hydroxypropylcellulose) (HPC) 89 % of control | dose: 400.0 mg/kg/injection, schedule: Q04DX003 (ip), vehicle: Klucel (hydroxypropylcellulose) (HPC) 93 % of control

COC(=O)c1cc(C(=O)OC(C)(C)C)c(-c2ccc(OC)c(OC)c2)c2cc(OC)c(OC)cc12
inactive: [3] 100 % of control | [4] 101 % of control | [5] 103 % of control

Nc1nc(N)c2[nH]cnc2n1
inactive: dose: 12.5 mg/kg/injection, schedule: Q01DX Z (ip), vehicle: carboxymethylcellulose (CMC) 91 % of control | dose: 17.49 mg/kg/injection, schedule: Q01DX Z (ip), vehicle: carboxymethylcellulose (CMC) 86 % of control | dose: 25.0 mg/kg/injection, schedule: Q01DX009 (ip), vehicle: Klucel (hydroxypropylcellulose) (HPC) 111 % of control | dose: 25.0 mg/kg/injection, schedule: Q01DX Z (ip), vehicle: carboxymethylcellulose (CMC) 93 % of control | dose: 34.98 mg/kg/injection, schedule: Q01DX Z (ip), vehicle: carboxymethylcellulose (CMC) 92 % of control | dose: 44.0 mg/kg/injection, schedule: Q02DX010 (ip), vehicle: other 100 % of control | dose: 50.0 mg/kg/injection, schedule: Q01DX009 (ip), vehicle: Klucel (hydroxypropylcellulose) (HPC) 110 % of control | dose: 66.0 mg/kg/injection, schedule: Q02DX010 (ip), vehicle: other 105 % of control | dose: 69.95 mg/kg/injection, schedule: Q01DX Z (ip), vehicle: carboxymethylcellulose (CMC) 95 % of control | dose: 100.0 mg/kg/injection, schedule: Q01DX001 (ip), vehicle: carboxymethylcellulose (CMC) 97 % of control | dose: 100.0 mg/kg/injection, schedule: Q01DX Z (ip), vehicle: carboxymethylcellulose (CMC) 91 % of control | dose: 100.0 mg/kg/injection, schedule: Q02DX010 (ip), vehicle: other 116 % of control | dose: 139.9 mg/kg/injection, schedule: Q01DX Z (ip), vehicle: carboxymethylcellulose (CMC) 106 % of control | dose: 150.0 mg/kg/injection, schedule: Q02DX010 (ip), vehicle: other 117 % of control | dose: 200.0 mg/kg/injection, schedule: Q01DX001 (ip), vehicle: carboxymethylcellulose (CMC) 90 % of control | dose: 225.0 mg/kg/injection, schedule: Q02DX010 (ip), vehicle: other 60 % of control | dose: 400.0 mg/kg/injection, schedule: Q01DX001 (ip), vehicle: carboxymethylcellulose (CMC) 97 % of control

COc1ccc(OC)c(N=C2C(=O)Nc3ccc(Br)cc32)c1
inactive: dose: 100.0 mg/kg/injection, schedule: Q01DX001 (ip), vehicle: saline with Tween-80 92 % of control | [1] 100 % of control | dose: 100.0 mg/kg/injection, schedule: Q04DX002 (ip), vehicle: saline with Tween-80 108 % of control and 113 % of control | dose: 100.0 mg/kg/injection, schedule: Q04DX003 (ip), vehicle: saline with Tween-80 101 % of control | dose: 200.0 mg/kg/injection, schedule: Q01DX001 (ip), vehicle: saline with Tween-80 88 % of control | [2] 94 % of control and 100 % of control | dose: 200.0 mg/kg/injection, schedule: Q04DX002 (ip), vehicle: saline with Tween-80 95 % of control and 97 % of control | dose: 200.0 mg/kg/injection, schedule: Q04DX003 (ip), vehicle: saline with Tween-80 93 % of control | dose: 400.0 mg/kg/injection, schedule: Q01DX001 (ip), vehicle: saline with Tween-80 90 % of control | dose: 400.0 mg/kg/injection, schedule: Q01DX009 (ip), vehicle: saline with Tween-80 101 % of control and 92 % of control | dose: 400.0 mg/kg/injection, schedule: Q04DX002 (ip), vehicle: saline with Tween-80 88 % of control and 89 % of control | dose: 400.0 mg/kg/injection, schedule: Q04DX003 (ip), vehicle: saline with Tween-80 88 % of control

O=C(Nc1ccc([N+](=O)[O-])cc1)N(c1cc(Cl)ccn1)C1CCCCC1
inactive: [3] 96 % of control | [4] 90 % of control | [5] 96 % of control

Clc1ccc(C[P+](c2ccccc2)(c2ccccc2)c2ccccc2)c(Cl)c1
inactive: dose: 4.5 mg/kg/injection, schedule: Q01DX009 (ip), vehicle: saline 109 % of control | dose: 6.25 mg/kg/injection, schedule: Q01DX009 (ip), vehicle: saline with Tween-80 100 % of control | dose: 9.0 mg/kg/injection, schedule: Q01DX009 (ip), vehicle: saline 106 % of control | dose: 9.38 mg/kg/injection, schedule: Q01DX001 (ip), vehicle: water 100 % of control | dose: 12.5 mg/kg/injection, schedule: Q01DX009 (ip), vehicle: saline with Tween-80 94 % of control

Cc1ccnc(NC(=O)CCc2ccccc2)c1
inactive: [6] 95 % of control | [7] 100 % of control | [8] 92 % of control

O=C(NCCS)c1ccc(C(=O)NCCS)cc1
inactive: [6] 95 % of control | [7] 103 % of control | [8] 103 % of control

O=C1CCn2c1c(O)c1ccccc1c2=O
inactive: [3] 97 % of control | [4] 97 % of control

CC(=O)CCCCc1ccccc1
inactive: [6] 88 % of control | [7] 102 % of control | [8] 88 % of control

C[N+](C)(C)c1ncnc2[n-]cnc12
inactive: dose: 50.0 mg/kg/injection, schedule: Q01DX015 (ip), vehicle: saline 110 % of control
